The record followed here is US6087334A, “Anti-diabetic peptides” (Amylin Pharmaceuticals, Inc., priority 1998, dated 2000).

Test [1] addresses T1, C1a receptor (C1a-type calcitonin receptor) (Rattus norvegicus, UniProt P32214).
T1 construct: expressed in transfected cells
T1 sequence (P32214 25-479 isoform P32214-2 limits assumed): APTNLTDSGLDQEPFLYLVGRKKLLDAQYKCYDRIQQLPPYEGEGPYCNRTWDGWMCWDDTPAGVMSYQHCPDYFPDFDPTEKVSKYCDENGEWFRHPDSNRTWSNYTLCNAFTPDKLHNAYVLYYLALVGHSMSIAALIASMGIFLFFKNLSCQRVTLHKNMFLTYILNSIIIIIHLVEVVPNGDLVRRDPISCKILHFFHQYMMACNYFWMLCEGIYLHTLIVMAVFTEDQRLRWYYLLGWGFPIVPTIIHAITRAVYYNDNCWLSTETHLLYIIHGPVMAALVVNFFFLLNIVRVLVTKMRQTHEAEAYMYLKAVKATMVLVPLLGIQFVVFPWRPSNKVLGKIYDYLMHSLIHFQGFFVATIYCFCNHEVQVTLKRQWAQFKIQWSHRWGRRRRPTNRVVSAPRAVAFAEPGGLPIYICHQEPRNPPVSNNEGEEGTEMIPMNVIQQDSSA
Kind of test: C1a/293 competitive binding, displacement of [125I]-human calcitonin (Example C). The following applies: HEK293 plasma membranes (C1a/293), [125I]-human calcitonin 20 pM. As for the experimental part:
Peptide compounds of the present invention may be evaluated for binding to the C1a receptor using the procedures described in Example C. The C1a receptor is the predominant mammalian calcitonin receptor subtype. C1a pcDNA construction and transfection were carried out as previously described (Albrandt et al. 1993, FEBS Letters, 325:225-232). HEK293 cell lines showing stable expression of the rat C1a-type calcitonin receptor (C1a/293) or the human C1a-type calcitonin receptor (1154/293) were selected by G418 resistance and limiting dilution culture methods. Plasma membranes were collected from homogenized HEK293 cells and used in the receptor binding assay. Individual test peptides at concentrations spanning 6 log units starting at around 10^-6 M were examined for their ability to displace [^125 I]-human calcitonin from the plasma membrane preparation using a 96-well microtiter plate format and scintillation counting with a Wallac LKB Beta plate counter. Competitive binding curves were constructed. Non-specific binding was measured in the presence of 100 nM calcitonin. Peptide potencies (IC50 's for competitive binding) were calculated by non-linear regression using Prism™ (version 2.01, GraphPAD Software, San Diego, Calif.).
C1a/293 Competitive Binding Studies:
Compounds were evaluated for competition in binding to the C1a receptor as follows:
(§1) Reference peptides used in these studies were purchased from Bachem (Torrance, Calif.). All other chemicals were of the highest commercial grade. [^35 S]-GTPγS was purchased from NEN Life Science Products, Inc., Pittsburgh, Pa. [^125 I]-human calcitonin was purchased from Amersham Pharmacia Biotech, Inc., Piscataway, N.J.
Methods for C1a pcDNA construction and transfection have been previously described (Albrandt, et al. 1993). HEK293 cell lines stably expressing the rat C1a-type calcitonin receptor (C1a/293) or the human C1a-type calcitonin receptor (1154/293) were selected by G418 resistance and limiting dilution culture methods.
(§2) Confluent cells were detached from tissue culture flasks by incubation with 5 mM EDTA in PBS. Cells were homogenized in ice-cold 20 mM HEPES, pH 7.4 with a Polytron homogenizer. Plasma membranes were collected using three cycles of washing in fresh buffer followed by centrifugation for 15 minutes at 48,000×g. The final membrane pellet was resuspended in 20 mM HEPES buffer containing 0.2 mM phenylmethylsulfonyl fluoride (PMSF) and stored at -70° C.
Assay buffer contained 5 μg/mL bestatin, 1 μg/mL phosphoramidon, 1 mg/mL bovine serum albumin (fraction V), 1 mg/mL bacitracin, 1 mM MgCl2, and 20 mM HEPES, pH 7.4. Membranes (2-5 μg membrane protein/well), [^125 I]-human calcitonin (20 pM), and peptides were combined in 200 μL buffer in 96-well microtiter plates. After a 60 minute incubation at room temperature, well contents were harvested onto polyethyleneimine-treated GF/B glass fiber pads using a Tomtec Mach II plate harvestor (Hamden, Conn.). Dried pads were combined with scintillant and counted on a Wallac LKB Beta Plate scintillation counter (Gaithersburg, Md.). For competitive binding curves, samples were run in duplicate over a 6 log concentration range starting at 10^-6 or 10^-7 M. Non-specific binding was measured in the presence of 100 nM human calcitonin.

The target in test [2] is T1, C1a receptor (C1a-type calcitonin receptor). Kind of test: biochemical. Conditions: HEK293 plasma membranes, [35S]-GTPγS 200 pM; read-out: ED50 (nM) Example B (C1a GTPγS).
Source text: Peptide compounds of the present invention may be evaluated for agonist activity using the procedures described in Example B. The plasma membrane preparation of a 7-transmembrane-G-protein coupled receptor (GPCR) contains not only the receptor but also the G-proteins which constitute the first step in the intracellular signal transduction process when the receptor is activated by an agonist ligand. […] Agonist activation of a GPCR is accompanied by displacement of GDP by GTP from this site. Thus, measurement of the binding of a radiolabelled ligand, namely [^35 S]-GTPγS, for this binding site constitutes a measure of agonist potency for a given ligand. For agonism at the C1a receptor, a similar membrane preparation to that described below for the C1a binding studies is used. C1a pcDNA construction and transfection were carried out as previously described (Albrandt et al. 1993, FEBS Letters, 325:225-232). HEK293 cell lines showing stable expression of the rat C1a-type calcitonin receptor (C1a/293) or the human C1a-type calcitonin receptor (1154/293) were selected by G418 resistance and limiting dilution culture methods. Plasma membranes were collected from homogenized HEK293 cells and used in the [^35 S]-GTPγS assay. Individual test peptides at concentrations spanning 6 log units starting at around […] were examined for their ability to bind [^35 S]-GTPγS. Maximum agonist-specific binding was measured in the presence of 1 μM human calcitonin, constitutive binding was measured in the presence of buffer alone. Peptide potencies (EC50 's for concentration response curves) were calculated by non-linear regression using Prism™ (version 2.01, GraphPAD Software, San Diego, Calif.).
[^35 S]-GTPγS C1a Agonist Studies
Evaluation of the agonist activity of compounds versus the C1a receptor was carried out as follows:
as §1
Methods for C1a pcDNA construction and transfection have been previously described (Albrandt, et al. 1993, FEBS Letters, 325:225-232). HEK293 cell lines stably expressing the rat C1a-type calcitonin receptor (C1a/293) or the human C1a-type calcitonin receptor (1154/293) were selected by G418 resistance and limiting dilution culture methods.
as §2
Assay buffer contained 1 μM GDP, 1 mM EDTA, 5 mM MgCl2, 20 mM Hepes, and 150 mM NaCl, pH 7.4. Membranes (7.5 μg membrane protein/well), [^35 S]-GTPγS (200 pM), and peptides were combined in 200 μL buffer in 96-well microtiter plates. After a 75 minute incubation at room temperature, well contents were harvested onto GF/B glass fiber pads using a Tomtec Mach II plate harvestor (Hamden, Conn.). Dried pads were combined with scintillant and counted on a Wallac LKB Beta Plate scintillation counter. For concentration response curves, samples were run in duplicate over a 6 log concentration range starting at 10^-6 M or 10^-7 M. Maximum agonist-specific binding was measured in the presence of 1 μM human calcitonin, constitutive binding was measured in the presence of buffer alone.
Peptide potencies (1C50 's for competitive binding, and EC50 's for concentration response curves) were calculated by non-linear regression using Prism (version 2.01, GraphPAD Software, San Diego, Calif.).
A general note: Binding of GTPγS marks nucleotide exchange on a G protein.

Where a SMILES comes first, the peptide text is derived from it. Bridges are numbered along the chain shown (N, C = ends).

What is called IC50 is the concentration that gives 50% inhibition. For the compound `CC(C)C[C@H](NC(=O)[C@H](CCCNC(=N)N)NC(=O)[C@H](CCC(N)=O)NC(=O)[C@@H](NC(=O)[C@H](C)NC(=O)[C@@H]1CSSC[C@H](NC(=O)[C@@H](N)CCCCN)C(=O)N[C@@H](CC(N)=O)C(=O)N[C@@H]([C@@H](C)O)C(=O)N[C@@H](C)C(=O)N[C@@H]([C@@H](C)O)C(=O)N1)[C@@H](C)O)C(=O)N[C@@H](C)C(=O)N[C@@H](CC(N)=O)C(=O)N[C@@H](Cc1ccccc1)C(=O)N[C@@H](CC(C)C)C(=O)N[C@H](C(=O)N[C@@H](Cc1c[nH]cn1)C(=O)N[C@@H](CO)C(=O)N[C@@H](CO)C(=O)NCC(=O)N[C@@H](Cc1ccc(O)cc1)C(N)=O)C(C)C` [Example 11] (H-KCNTATCATQRLANFLVHSSGY-NH2; disulfide 2-7), the IC50 in test [1] is 8.3 nM. For the same compound, the EC50 in test [2] turned out to be 14 nM.
In the case of `CC(C)C[C@H](NC(=O)[C@H](CCCNC(=N)N)NC(=O)[C@H](CCC(N)=O)NC(=O)[C@@H](NC(=O)[C@H](C)NC(=O)[C@@H]1CSSC[C@H](NC(=O)[C@@H](N)CCCCN)C(=O)N[C@@H](CC(N)=O)C(=O)N[C@@H]([C@@H](C)O)C(=O)N[C@@H](C)C(=O)N[C@@H]([C@@H](C)O)C(=O)N1)[C@@H](C)O)C(=O)N[C@@H](C)C(=O)N[C@@H](CC(N)=O)C(=O)N[C@@H](Cc1ccccc1)C(=O)N[C@@H](CC(C)C)C(=O)N[C@H](C(=O)N[C@@H](C)C(=O)N[C@@H](CO)C(=O)N[C@@H](CO)C(=O)NCC(=O)N[C@@H](Cc1ccc(O)cc1)C(N)=O)C(C)C` [Example 12] (H-KCNTATCATQRLANFLVASSGY-NH2; disulfide 2-7), in test [1], the IC50 came to 10 nM. Besides, the EC50 in test [2] was determined as 8 nM.
For the compound `CC(C)C[C@H](NC(=O)[C@H](CCCNC(=N)N)NC(=O)[C@H](CCC(N)=O)NC(=O)[C@@H](NC(=O)[C@H](C)NC(=O)[C@@H]1CSSC[C@H](N)C(=O)N[C@@H](CC(N)=O)C(=O)N[C@@H]([C@@H](C)O)C(=O)N[C@@H](C)C(=O)N[C@@H]([C@@H](C)O)C(=O)N1)[C@@H](C)O)C(=O)N[C@@H](C)C(=O)N[C@@H](CC(N)=O)C(=O)N[C@@H](Cc1ccccc1)C(=O)N[C@@H](CC(C)C)C(=O)N[C@H](C(=O)N[C@@H](CCCNC(=N)N)C(=O)N[C@@H](CO)C(=O)N[C@@H](CO)C(=O)NCC(=O)N[C@@H](Cc1ccc(O)cc1)C(N)=O)C(C)C` [Example 13] (H-CNTATCATQRLANFLVRSSGY-NH2; disulfide 1-6), in test [1], the IC50 worked out at 12 nM. Further, the EC50 in test [2] is 19 nM.
Consider `CC(C)C[C@H](NC(=O)[C@H](CCCNC(=N)N)NC(=O)[C@H](CCC(N)=O)NC(=O)[C@@H](NC(=O)[C@H](C)NC(=O)[C@@H]1CSSC[C@H](NC(=O)[C@@H](N)CCCCN)C(=O)N[C@@H](CC(N)=O)C(=O)N[C@@H]([C@@H](C)O)C(=O)N[C@@H](C)C(=O)N[C@@H]([C@@H](C)O)C(=O)N1)[C@@H](C)O)C(=O)N[C@@H](C)C(=O)N[C@@H](CC(N)=O)C(=O)N[C@@H](Cc1ccccc1)C(=O)N[C@@H](CC(C)C)C(=O)N[C@H](C(=O)N[C@@H](CCCNC(=N)N)C(=O)N[C@@H](CO)C(=O)N[C@@H](CO)C(=O)NCC(=O)N[C@@H](Cc1ccc(O)cc1)C(N)=O)C(C)C` [Example 14] (H-KCNTATCATQRLANFLVRSSGY-NH2; disulfide 2-7), for which the IC50 in test [1] stood at 18 nM. Besides, the EC50 in test [2] amounted to 90 nM.
The corresponding values for `CC(C)C[C@H](NC(=O)[C@H](CCCNC(=N)N)NC(=O)[C@H](CCC(N)=O)NC(=O)[C@@H](NC(=O)[C@H](C)NC(=O)[C@@H]1CSSC[C@H](NC(=O)[C@@H](N)CCCCN)C(=O)N[C@@H](CC(N)=O)C(=O)N[C@@H]([C@@H](C)O)C(=O)N[C@@H](C)C(=O)N[C@@H]([C@@H](C)O)C(=O)N1)[C@@H](C)O)C(=O)N[C@@H](C)C(=O)N[C@@H](CC(N)=O)C(=O)N[C@@H](Cc1ccccc1)C(=O)N[C@@H](CC(C)C)C(=O)N[C@H](C(=O)N[C@@H](CCCNC(=N)N)C(=O)N[C@@H](CO)C(=O)N[C@@H](C)C(=O)NCC(=O)N[C@@H](Cc1ccc(O)cc1)C(N)=O)C(C)C` [Example 15] (H-KCNTATCATQRLANFLVRSAGY-NH2; disulfide 2-7) are 18 nM and 21 nM.
Consider `CC(C)C[C@H](NC(=O)[C@H](Cc1ccccc1)NC(=O)[C@H](CC(N)=O)NC(=O)[C@H](C)NC(=O)[C@H](CC(C)C)NC(=O)[C@H](CCCNC(=N)N)NC(=O)[C@H](CCC(N)=O)NC(=O)[C@@H](NC(=O)[C@H](C)NC(=O)[C@@H]1CSSC[C@H](NC(=O)[C@@H](N)CCCCN)C(=O)N[C@@H](CC(N)=O)C(=O)N[C@@H]([C@@H](C)O)C(=O)N[C@@H](C)C(=O)N[C@@H]([C@@H](C)O)C(=O)N1)[C@@H](C)O)C(=O)N[C@@H](C)C(=O)N[C@@H](CCCNC(=N)N)C(=O)N[C@@H](CO)C(=O)N[C@@H](CO)C(=O)NCC(=O)N[C@@H](Cc1ccc(O)cc1)C(N)=O` [Example 16] (H-KCNTATCATQRLANFLARSSGY-NH2; disulfide 2-7), for which the concentration for half-maximal inhibition (IC50) in test [1] came to 20 nM. For the same compound, in test [2], the EC50 came out at 1.4 nM.
